Values quoted from earlier work, collected in US20070027073A1, “Long-acting derivatives of pyy agonists” (priority 2003, published 2007).

Details: in vivo

CCCCCCCCCCC[C@@H](C[C@@H]1OC(=O)[C@H]1CCCCCC)OC(=O)[C@H](CC(C)C)NC=O [Orlistat]
reduction of fat adsorption through the gut: about one third
